Results published in US9096550B2, “Bryostatin analogues and methods of making and using thereof” (UNIVERSITY OF UTAH RESEARCH FOUNDATION, priority 2008, dated 2015).

Experiments:
[1] = test system: U937 cells; assay: Inhibition of U937 cell proliferation; format: cell-based, human
Description: (§1) U937 cells (Sundstrom, C.; Nilsson, K.: Establishment and characterization of a human histiocytic lymphoma cell line (U-937). Int. J. Cancer 1976, 17: 565-577.), purchased from ATCC (Manassas, Va.) and cultured in RPMI-1640 medium supplemented with 10% FBS (ATCC, Manassas, Va.), were plated in 35 mm dishes at a density of 2×10^5 living cells/ml and treated with different concentrations of the drugs or DMSO. After 72 hours, the number of cells in the supernatant (non-attached cells) and the number of attached cells (after trypsinization) were counted using a Beckman particle counter (Beckman Coulter Inc., Fullerton, Calif.). The number of attached cells is expressed as percent of total cells (FIGS. 8-10).
(§2) U937 cells were treated with PMA (0.1-100 nM), bryostatin 1 (1-1000 nM), the indicated compound (1-1000 nM), 10 nM PMA with different concentrations of bryostatin 1 (1-1000 nM) or 10 nM PMA with different concentrations of indicated compound (1-1000 nM). The number of attached and non-attached cells was counted and the number of total cells was expressed as % of control. The bars and error bars represent the average and the standard error of the mean of five independent experiments (FIGS. 8-10).
(§3) U937 cells (Sundstrom and Nilsson, 1976), purchased from ATCC (Manassas, Va.) and cultured in RPMI-1640 medium supplemented with 10% FBS (ATCC, Manassas, Va.), were plated in 35 mm dishes at a density of 1×10^5 living cells/ml and treated with different concentrations of the drugs or DMSO. After 72 hours, the number of cells in the supernatant (non-attached cells) and the number of attached cells (after trypsinization) were counted using a particle counter. The number of attached cells is expressed as percent of total cells.
U937 cells were treated with PMA (0.01-100 nM), bryostatin1 (0.1-1000 nM), analogue 12 (0.1-1000 nM), 10 nM PMA with different concentrations of bryostatin 1 (0.1-1000 nM) or 10 nM PMA with different concentrations of analogue 12 (0.1-1000 nM). The numbers of attached and non-attached cells were counted and the number of total cells was expressed as % of control. The bars and error bars represent the average and the standard error of the mean of at least three independent experiments.
as §3, with “U-937” for “U937”
as §2, with “U-937” for “U937”, “at least three” for “five”, “experiments.” for “experiments (FIGS. 8-10).”

[2] = test system: U937 cells; assay: Attachment of U937 cells; format: cell-based, human
Description: as §1
(§4) U937 cells were treated with PMA (0.1-100 nM), bryostatin 1 (1-1000 nM), the indicated compound (1-1000 nM), 10 nM PMA with different concentrations of bryostatin 1 (1-1000 nM) or 10 nM PMA with different concentrations of indicated compound (1-1000 nM) for 72 hours. The number of attached cells and total cells were counted and the attached cells were graphed as percent of total cells. The bars and error bars represent the average and the standard error of the mean of five independent experiment (FIGS. 8-10).
as §3
U937 cells were treated with PMA (0.01-100 nM), bryostatin1 (0.1-1000 nM), analogue 12 (MERLE 28) (0.1-1000 nM), 10 nM PMA with different concentrations of bryostatin 1 (0.1-1000 nM) or 10 nM PMA with different concentrations of analogue 12 (0.1-1000 nM). The number of attached cells and total cells were counted and the attached cells were graphed as percent of total cells. The bars and error bars represent the average and the standard error of the mean of at least three independent experiments.
as §3, with “U-937” for “U937”
as §4, with “U-937” for “U937”, “at least three” for “five”, “experiments.” for “experiment (FIGS. 8-10).”

[3] = test system: LNCaP cells; assay: Proliferation of LNCaP cells (Incucyte confluency); format: cell-based, human; conditions: 300 nM PMA combined with 1000 nM compound, 80 hrs
Description: FIGS. 12A-D show the effect of different compounds on the proliferation and apoptosis of LNCaP cells. […] Time-elapsed images were taken with an Incucyte imaging system every hour for 4 days. The proliferation of LNCaP cells is presented as increase in confluency (read by the instrument) at 80 hrs. Data represent the means+SEM of three independent experiments. […] Apoptosis was measured 2 days after treatment by flow cytometry using 7-AAD and Yo-Pro-1 as described in Materials and Methods. Data represent the means+SEM of three independent experiments.
FIGS. 13A and 13B show the proliferation and morphology of LNCaP cells detected by Incucyte. LNCaP cells were treated with DMSO as control, 300 nM PMA, 1000 nM bryostatin 1 or the bryologue MERLE 21, or with 300 nM PMA in combination with 1000 nM bryostatin 1 or the bryologue MERLE 21. Time-elapsed images were taken by the Incucyte imaging system every hour. […] The arrow indicates the time of treatment. Data are representative of three independent experiments.
The extent of confluency of LNCaP cells (from ATCC, Manassas, Va.) and the morphological changes after treatment were followed in real time using Incucyte (Essen Instruments, Ann Arbor, Mich.). Images of LNCaP cells plated into 24 well plates were taken every 1 hour by the instrument before and after treatment for a total of 4 days. The confluency of the cells was calculated by the instrument's program. The proliferation of LNCaP cells was expressed as the difference in cell confluency before and after treatment.

[4] = test system: C3H10T1/2 cells; assay: Release of arachidonic acid from C3H10T1/2 cells; format: cell-based, mouse; conditions: % of the maximal PMA-induced response relative to the DMSO control, 2 hour treatment
Description: FIGS. 15A and 15B show the release of arachidonic acid from treated C3H10T1/2 cells. The cells were labeled with [^3H]arachidonic acid for 18 hrs, treated with DMSO as control, different concentrations of PMA (0.1-100 nM), bryostatin 1 (1-1000 nM), the bryologues (1-1000 nM) (A) or 100 nM PMA in combination with 1000 nM bryostatin 1, or the bryologues MERLE 21, 22, 23. The radioactive arachidonic acid released into the medium was quantitated after 2 hour treatment. The response of 100 nM PMA was taken as 100%. Data represent the means+SEM of four (FIG. 15A) or three (FIG. 15B) independent experiments.
C3H10T1/2 cells (ATCC, Manassas, Va.) were plated in 24 well plates and treated with different drugs or with DMSO as control. The release of arachidonic acid after 2 hour treatment was measured as described previously (Dell′Aquila M L, Herald C L, Kamano Y, Pettit G R, Blumberg P M. Differential effects of byrostatins and phorbol esters on arachidonic acid metabolite release and epidermal growth factor binding in C3H10T1/2 cells. Cancer Res 1988; 48: 3702-3708).

[5] = 10 nM PMA with different concentrations of compound

| SMILES | block of PMA inhibition of U937 cell proliferation [1, 5] | inhibition of U937 cell proliferation ([1]; compound alone) | block of PMA-induced attachment of U937 cells [2, 5] | attachment of U937 cells ([2]; compound alone, 72 hours) | block of the PMA inhibition of LNCaP cell growth [3] | arachidonic acid release, average level of response [4] |
| --- | --- | --- | --- | --- | --- | --- |
| C=C1C[C@H]2CC3(O)O[C@H](C[C@@H](O)CC(=O)O[C@@H]([C@@H](C)O)C[C@@H]4C/C(=C\C(=O)OC)[C@H](OC(=O)/C=C/C=C/CCC)[C@@](O)(O4)C(C)(C)/C=C/[C@@H](C1)O2)C[C@H](OC(C)=O)C3(C)C [MERLE 28] | Both of these aspects of bryostatin 1 induced biological response are captured | very similar to those for bryostatin 1 | functional antagonist of PMA and blocks the effect of the phorbol ester | approaches that of bryostatin 1 itself |  |  |
| C=C1C[C@@H]2C[C@@H]3CC(=C)C[C@H](/C=C/C(C)(C)[C@]4(O)O[C@@H](C/C(=C\C(=O)OC)[C@@H]4OC(=O)c4ccccc4)C[C@H]([C@@H](C)O)OC(=O)C[C@H](O)C[C@H](C1)O2)O3 [MERLE 21] |  |  |  |  | did not appear to quite reach the level observed for bryostatin 1 | 73% |
| C=C1C[C@@H]2C[C@@H]3CC(=C)C[C@H](/C=C/C(C)(C)[C@]4(O)O[C@@H](C/C(=C\C(=O)OC)[C@@H]4OC(=O)/C=C/C=C/CCC)C[C@H]([C@@H](C)O)OC(=O)C[C@H](O)C[C@H](C1)O2)O3 [MERLE 23] |  |  |  |  | did not appear to quite reach the level observed for bryostatin 1 | 64% |
| C=C1C[C@@H]2C[C@@H]3CC(=C)C[C@H](/C=C/C(C)(C)[C@]4(O)O[C@@H](C/C(=C\C(=O)OC)[C@@H]4OC(=O)CCCCCCC)C[C@H]([C@@H](C)O)OC(=O)C[C@H](O)C[C@H](C1)O2)O3 [MERLE 22] |  |  |  |  | did not appear to quite reach the level observed for bryostatin 1 | 69% |
